What all share (experiment): DTP human tumour cell line panel, 48 h
Assay [1] deals with OVCAR-3 ovarian.
Assay [2] has as its system HCC-2998 colon.
Assay [3] deals with A549 NSCLC.
Assay [4] concerns OVCAR-4 ovarian.
Assay [5] concerns HS 578T breast.
Assay [6] relates to DU-145 prostate.
Assay [7] relates to EKVX NSCLC.
Assay [8] concerns KM12 colon.
Assay [9] deals with 786-0 renal.
Assay [10] has as its system NCI-H522 lung.
For assay [11], the system named is SF-539 CNS.
In assay [12] the test system is M14 melanoma.
The test system of assay [13] is HCT-15 colon.
Assay [14] deals with MDA-MB-435.
Assay [15] relates to SK-MEL-2 melanoma.
In assay [16] the test system is NCI-H23 lung.
Assay [17] concerns CCRF-CEM leukemia.
The subject of assay [18] is SNB-75 CNS.
For assay [19], the system named is RXF 393 renal.
Assay [20] relates to HOP-92 NSCLC.

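Assay format: 96-well plates, 48-hour exposure. TGI: total growth inhibition.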 Bounds are passed on as bounds.

The results in this text go back to PubChem BioAssay (NCI).

One may read the TGI as the concentration at which net growth stops.

Turning to `Cc1ncc([N+](=O)[O-])n1CCNC(=O)CCn1ccnc1[N+](=O)[O-]`, the TGI in assay [1], in [2], in assay [3], in assay [4], in [5] and in assay [6] was greater than 100 µM throughout. Further, the TGI in assay [7], in assay [8], in assay [9], in assay [10], in assay [11] and in [12] was greater than 100 µM throughout. Moreover, the concentration for total growth inhibition (TGI) in assay [13], in assay [14], in assay [15], in assay [16], in [17] and in assay [18] was greater than 100 µM throughout.
For the compound `CCn1c(SCC(=O)NNC(=S)Nc2ccc(F)cc2)nc2ccccc2c1=O`, the TGI in assay [1], in [2], in assay [3], in assay [4], in assay [5] and in [6] was greater than 100 µM throughout. The TGI in assay [7], in assay [19], in assay [8], in [9], in assay [10] and in assay [11] was greater than 100 µM throughout. Also, the TGI in [12], in assay [13], in assay [14], in assay [15], in assay [16] and in assay [17] was greater than 100 µM each time. In assay [18], this compound gave a TGI greater than 100 µM.
On to `CN1CCC/C1=C1\C(=O)c2cccn2C1=O`, for which the TGI in assay [1], in assay [2], in [3], in assay [4], in [5] and in assay [6] was greater than 100 µM in each case. Besides, the TGI in assay [7], in assay [19], in assay [8], in [9], in assay [10] and in assay [12] was greater than 100 µM in each case. The TGI in assay [13], in [14], in [15], in assay [16], in assay [17] and in assay [18] was greater than 100 µM throughout.
`COc1ccc(-c2cc(-c3ccco3)c(C#N)c(=S)n2C2OC(CO)C(O)C(O)C2O)cc1` (centres undefined): the TGI in assay [1], in [2], in [3], in assay [4], in assay [5] and in assay [7] was greater than 100 µM throughout. In addition, the TGI in assay [19], in assay [8], in [9], in assay [10], in assay [11] and in assay [12] was greater than 100 µM throughout. The TGI in assay [13], in assay [14], in assay [15], in [16], in [17] and in assay [18] was greater than 100 µM in each case.
In the case of `CNC(=S)NNC1=NCCCCN1`, the TGI in assay [1], in assay [2], in assay [3], in [4], in assay [5] and in assay [7] was greater than 100 µM throughout. The TGI in assay [20], in [19], in [8], in [9], in assay [10] and in assay [11] was greater than 100 µM throughout. The TGI in assay [12], in assay [13], in assay [14], in [15], in assay [16] and in [17] was greater than 100 µM throughout. The compound also displayed a TGI in assay [18] greater than 100 µM.
Take `N#CC1=C(N2CCOCC2)CCC1`: the total growth inhibition concentration (TGI) in assay [1], in assay [2], in assay [3], in assay [4], in assay [5] and in assay [6] was greater than 100 µM throughout. The TGI in assay [7], in assay [19], in [8], in assay [9], in [10] and in assay [11] was greater than 100 µM each time. Also, the TGI in assay [12], in assay [13], in assay [14], in assay [15], in [16] and in [17] was greater than 100 µM each time. For the same compound, the TGI in [18] was greater than 100 µM.
Take `COc1cc(/C=C2\N=C(c3ccccc3)N(/N=C/c3cc4cc(C)ccc4nc3Cl)C2=O)cc(OC)c1OC`: the TGI in [1] is greater than 100 µM; in assay [2], 45.4 µM; in [3] it was greater than 100 µM; in assay [4] it was greater than 100 µM; in assay [5], 88.8 µM; in assay [6], 80.6 µM. Moreover, the TGI in assay [7] is greater than 100 µM; in assay [20], greater than 100 µM; in assay [8], greater than 100 µM; in assay [9], greater than 100 µM; in [11], 41.8 µM; in [12], greater than 100 µM. Besides, the TGI in assay [13] is greater than 100 µM; in assay [14] it was 40.7 µM; in assay [15], 48 µM; in assay [18] it was 61.5 µM.
Consider `Cc1nc2ccc(N=NN(C)C)cc2[nH]1`, for which the TGI in assay [1], in assay [2], in assay [3], in [4], in [5] and in [6] was greater than 100 µM in each case. Moreover, the TGI in [7], in assay [19], in assay [8], in [9], in [10] and in assay [12] was greater than 100 µM each time. Further, the TGI in assay [13], in assay [14], in assay [15], in assay [17] and in assay [18] was greater than 100 µM throughout.
